Where “and” joins values, the source holds several entries; their conditions need not be identical. Identical values can stand only once.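 Briefly, cells in 96-well plates were exposed to five compound concentrations for 48 h, and endpoints were estimated by linear interpolation. The concentration for 50% growth inhibition is given as GI50.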 Calls of active or inactive are those of the source. No stated cut-off is given here; in the data, active = GI50 up to about 1.1 µM and inactive = higher. A value given as a limit tells only on which side of the number the result lay.

Results on twelve compounds are retold here after ChEMBL document CHEMBL1201862, “PubChem BioAssay data set” (2004).

Holding throughout (test): NCI anticancer screen, dose series, 48 h
The test system of assay [1] is A549.
Assay [2] has as its system BT-549.
Assay [3] relates to CCRF-CEM.
For assay [4], the system named is COLO 205.
In assay [5] the test system is MDA-MB-231.
In assay [6] the test system is MDA-MB-435.
In assay [7] the test system is MOLT-4.
Assay [8] deals with NCI-H460.
In assay [9] the test system is SF-268.
Assay [10] deals with SF-539.
Assay [11] concerns SK-MEL-2.
The subject of assay [12] is TK-10.
In assay [13] the test system is UACC-257.
In assay [14] the test system is K562.
For assay [15], the system named is NCI-H23.
Assay [16] relates to SK-MEL-28.
For assay [17], the system named is SNB-19.
Assay [18] deals with SNB-75.
Assay [19] deals with T47D.

Regarding `COc1ccc(/C=C2/N/C(=N\N=C/C(O)C(O)C(O)CO)NC2=O)cc1` (stereo unspecified), the GI50 is > 100 µM (inactive) in assay [1]; 55.8 µM (inactive) and 28 µM (inactive) in assay [2]; 63 µM (inactive) and 53 µM (inactive) in assay [3]; 91.4 µM (inactive) in assay [4]; 91 µM (inactive) in [5]; > 100 µM (inactive) and 74.1 µM (inactive) in [6]. Also, the GI50 is 88.1 µM (inactive) in assay [7]; > 100 µM (inactive) in assay [8]; 57.5 µM (inactive) in assay [9]; 18 µM (inactive) in assay [10]; > 100 µM (inactive) in [11]; > 100 µM (inactive) in [12]. Besides, the GI50 in [13] was > 100 µM (inactive).
For the compound `CN1CCN(c2ccc(-n3cc(C(=O)O)c(=O)c4cc(F)c(N5CCN(C)CC5)cc43)nc2)CC1`, the GI50 in assay [1] was > 100 µM (inactive); in [2], 80 µM (inactive); in assay [3] it was > 100 µM (inactive); in assay [4], 25.4 µM (inactive); in assay [14], 62.8 µM (inactive); in [5] it was > 100 µM (inactive). Moreover, the GI50 in assay [6], in assay [7], in assay [15], in assay [8], in [9] and in [10] was > 100 µM (inactive) each time. Also, the GI50 in assay [16], in [17], in assay [18], in [19], in [12] and in [13] was > 100 µM (inactive) each time.
As for `COC(=O)C1(C(=O)OC)CC2=C(S(=O)(=O)c3ccccc3)C[C@@H](C#N)[C@H]2C1`, the GI50 in assay [1] was > 100 µM (inactive); in [2] it was 71.8 µM (inactive); in assay [3], > 100 µM (inactive); in assay [4], > 100 µM (inactive); in assay [14] it was > 100 µM (inactive); in [5] it was > 100 µM (inactive). Moreover, the GI50 is > 100 µM (inactive) in assay [6]; > 100 µM (inactive) in [7]; > 100 µM (inactive) in assay [15]; 91.4 µM (inactive) in [8]; > 100 µM (inactive) in assay [9]; > 100 µM (inactive) in assay [10]. Moreover, the GI50 in assay [16], in [11], in [17], in assay [18], in assay [12] and in assay [13] was > 100 µM (inactive) in each case.
`O=C1c2ccccc2C(=O)c2c(NCC3CO3)ccc(NCC3CO3)c21` (stereo unspecified): the GI50 in assay [1] was 2.4 µM (inactive); in assay [2] it was 3.15 µM (inactive); in assay [3] it was < 0.01 µM (active); in assay [4], 4.99 µM (inactive); in [14], 0.128 µM (active); in assay [5], 3.3 µM (inactive). For the same compound, the GI50 in assay [6] was 1.22 µM (inactive); in assay [7] it was 0.0119 µM (active); in [15] it was 1.49 µM (inactive); in assay [8] it was 2.39 µM (inactive); in [9], 0.254 µM (active); in assay [10] it was 1.91 µM (inactive). Besides, the GI50 was 2.71 µM (inactive) in [16]; 15.1 µM (inactive) in [17]; 26.7 µM (inactive) in assay [18]; 4.2 µM (inactive) in assay [19]; 19 µM (inactive) in assay [12]; 7.08 µM (inactive) in [13].
Consider `N[C@H](CCC(=O)NCP(=O)(O)O)C(=O)O`, for which the GI50 in assay [1], in assay [2], in assay [4], in assay [14], in [5] and in assay [6] was > 100 µM (inactive) throughout. The GI50 in [7], in assay [15], in assay [8], in assay [10], in assay [16] and in [11] was > 100 µM (inactive) each time. The GI50 in assay [17] is > 100 µM (inactive); in [19], > 100 µM (inactive); in assay [12] it was 10.5 µM (inactive); in assay [13] it was > 100 µM (inactive).
Take `CC(C)(C)N1CSC(=S)N(Cc2ccco2)C1`: the GI50 is 5.4 µM (inactive) in assay [1]; 2.79 µM (inactive) in [2]; 1.08 µM (active) in assay [3]; 3.65 µM (inactive) in assay [4]; 1.85 µM (inactive) in [14]; 1.76 µM (inactive) in [6]. Moreover, the GI50 in assay [7] is 1.45 µM (inactive); in assay [15] it was 2.37 µM (inactive); in assay [8], 5.89 µM (inactive); in assay [9] it was 3.93 µM (inactive); in assay [10], 0.708 µM (active); in assay [16] it was 2.4 µM (inactive). Besides, the GI50 was 3.55 µM (inactive) in [11]; 3.91 µM (inactive) in assay [17]; 12.8 µM (inactive) in assay [18]; 5.64 µM (inactive) in assay [19]; 3.04 µM (inactive) in [12]; 10.3 µM (inactive) in assay [13].
For `CC(=O)Oc1ccc2cc(Oc3cc(Cl)c(Cl)cc3Cl)c(=O)oc2c1`, the GI50 in assay [1] was 16.4 µM (inactive); in [2], 13.1 µM (inactive); in assay [3], 14 µM (inactive); in [14], 13.2 µM (inactive); in assay [5], 16.4 µM (inactive); in assay [7], 11.9 µM (inactive). Moreover, the GI50 is 22.2 µM (inactive) in assay [15]; 18.8 µM (inactive) in assay [8]; 26.9 µM (inactive) in assay [9]; 16 µM (inactive) in [10]; 26.2 µM (inactive) in [16]; 29.6 µM (inactive) in [17]. Also, the GI50 in assay [18] is 19.6 µM (inactive); in assay [19], 27.2 µM (inactive); in assay [12], 24.8 µM (inactive); in assay [13], 20.6 µM (inactive).
With `COC(=O)[C@]1(C)CCC[C@@]2(C)C1CC[C@@]13C=C(C(C)C)[C@@H](CC1=O)CC23` (stereo partly specified), the GI50 in assay [1] was 29.2 µM (inactive); in assay [2] it was 23 µM (inactive); in assay [3] it was 17.7 µM (inactive); in assay [4], > 10 µM (inactive); in [14], 13.8 µM (inactive); in assay [5], 30.3 µM (inactive). The GI50 is 35.6 µM (inactive) in [6]; 15 µM (inactive) in assay [7]; 34 µM (inactive) in [15]; 35.4 µM (inactive) in [8]; 32.5 µM (inactive) in assay [9]; 20.9 µM (inactive) in assay [10]. Besides, the GI50 in assay [16] is 41.3 µM (inactive); in assay [17] it was 25.8 µM (inactive); in assay [18], 59.7 µM (inactive); in assay [19], 32.4 µM (inactive); in assay [12], 43.8 µM (inactive); in [13], 21.5 µM (inactive).
Regarding `O=C1/C(=C/c2cccc([N+](=O)[O-])c2)Cc2ccccc21`, the GI50 in [1] is 91.6 µM (inactive); in assay [2], > 100 µM (inactive); in [3], > 100 µM (inactive); in assay [4], > 100 µM (inactive); in assay [14], > 100 µM (inactive); in assay [5], > 100 µM (inactive). Also, the GI50 in assay [6] is > 100 µM (inactive); in assay [7], > 100 µM (inactive); in assay [15], 73.1 µM (inactive); in assay [8] it was > 100 µM (inactive); in [9], > 100 µM (inactive); in [10], > 100 µM (inactive). Moreover, the GI50 in [16], in assay [11], in assay [17], in assay [18], in assay [12] and in [13] was > 100 µM (inactive) throughout.
For `c1ccc2c(-c3csc(-c4c[nH]c5ccccc45)n3)c[nH]c2c1`, the GI50 in assay [1] is 96.8 µM (inactive); in [2] it was > 100 µM (inactive); in assay [14], 3.37 µM (inactive); in assay [5], > 67.8 µM (inactive); in [6], 35.8 µM (inactive); in assay [7], 4.86 µM (inactive). In addition, the GI50 in assay [15] is > 100 µM (inactive); in assay [8] it was > 53.7 µM (inactive); in [9] it was > 100 µM (inactive); in assay [10], > 100 µM (inactive); in assay [16], > 100 µM (inactive); in [11], > 100 µM (inactive). The GI50 in assay [17] was > 89.7 µM (inactive); in assay [18], > 22.4 µM (inactive); in [12], 63.8 µM (inactive); in assay [13] it was > 100 µM (inactive).
In the case of `Nc1nc(N)c2nc(CNc3ccc(C(=O)NC(CCCCNC(=O)c4ccccc4C(=O)O)C(=O)O)cc3)cnc2n1` (stereo unspecified), the GI50 in assay [1] was 0.01 µM (active); in assay [2], > 100 µM (inactive); in assay [3], 0.01 µM (active); in [4] it was 0.01 µM (active); in [14], 0.01 µM (active); in assay [6] it was 0.01 µM (active). Moreover, the GI50 is 0.01 µM (active) in assay [7]; 0.0143 µM (active) in assay [15]; 0.01 µM (active) in [8]; 0.01 µM (active) in assay [9]; < 0.0133 µM (active) in [10]; < 0.0275 µM (active) in [16]. Also, the GI50 was 68.4 µM (inactive) in assay [11], < 0.0158 µM (active) in assay [17], 0.01 µM (active) in assay [19] and 0.173 µM (active) in assay [12].
With `O=NC1c2cccc3cccc(c23)C1N=O` (stereo unspecified), the GI50 in assay [1] was 2.43 µM (inactive); in assay [2] it was 4.21 µM (inactive); in [3], 1.19 µM (inactive); in assay [4], 3.17 µM (inactive); in assay [14], 2.65 µM (inactive); in assay [6], 4.78 µM (inactive). The GI50 was 0.612 µM (active) in [7]; 8.87 µM (inactive) in [15]; 4.36 µM (inactive) in assay [8]; 10.2 µM (inactive) in assay [9]; 12.8 µM (inactive) in assay [10]; 11.8 µM (inactive) in [17]. For the same compound, the GI50 in assay [18] is 9.79 µM (inactive); in [19], 17 µM (inactive); in assay [12] it was 10.2 µM (inactive); in [13], 12.9 µM (inactive).
